# Like-named read-outs stand apart in the source and are kept apart here.
# Target: 11β-HSD1 (Homo sapiens, UniProt P28845)
# Assay: biochemical
# Details: for IC50: IC50 Range, Biological Test Example 1, microsomes from CHO cells overexpressing human 11β-HSD1; for inhibition at 0.1111 µM: read-out: Average % inhibition at 111.1 nM, Biological Test Example 1, 111.1 nM compound
# [1] = read-out: Average % inhibition at 100 nM, Biological Test Example 1, 100 nM compound
# [2] = read-out: Average % inhibition at 100 nM, Biological Test Example 1, 100 nM
# [3] = read-out: Average % inhibition at 100 nM
# 11β-HSD1, sequence (P28845 whole entry): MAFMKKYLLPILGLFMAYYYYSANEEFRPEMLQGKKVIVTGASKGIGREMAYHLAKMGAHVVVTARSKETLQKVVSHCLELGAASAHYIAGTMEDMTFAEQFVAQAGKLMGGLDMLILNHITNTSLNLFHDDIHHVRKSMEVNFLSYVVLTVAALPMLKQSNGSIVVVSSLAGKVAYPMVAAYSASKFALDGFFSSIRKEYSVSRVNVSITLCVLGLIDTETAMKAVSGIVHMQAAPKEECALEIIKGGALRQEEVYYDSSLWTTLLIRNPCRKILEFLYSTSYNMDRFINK
Structure (SMILES),IC50,inhibition at 0.1 µM [1],inhibition at 0.1111 µM,inhibition at 0.1 µM [2],inhibition at 0.1 µM [3]
"C[C@@H](c1cccc(F)c1)N1CC[C@](CCC(N)=O)(c2ccc(F)cc2)OC1=O [EXAMPLE 288, 3-((R)-6-(4-fluorophenyl)-3-((S)-1-(3-fluorophenyl)ethyl)-2-oxo-1,3-oxazinan-6-yl)propanamide]",< 100 nM,72.4%,–,–,–
"C=CC[C@]1(c2ccc(F)cc2)CCN([C@@H](C)c2ccc(C(C)(C)O)cc2)C(=O)O1 [EXAMPLE 156, (R)-6-allyl-6-(4-fluorophenyl)-3-((S)-1-(4-(2-hydroxypropan-2-yl)phenyl)ethyl)-1,3-oxazinan-2-one]",< 100 nM,–,93.8%,–,–
"Cc1cc(-c2ccc([C@H](C)N3CCC(C)(c4ccc(F)cc4)OC3=O)cc2)ccn1 (single isomer, unassigned) [EXAMPLE 519 Isomer 1]",< 100 nM,–,–,–,–
"Cc1ccccc1C1(C)CCN([C@@H](C)c2ccccc2)C(=O)O1 (single isomer, unassigned) [EXAMPLE 86 Isomer 1]",100 to 1000 nM,–,43.3%,–,–
"C=CC[C@@]1(c2ccc(F)cc2)CCN([C@@H](C)c2ccc(Cl)c(F)c2)C(=O)O1 (single isomer, unassigned) [EXAMPLE 497 Isomer 1]",< 100 nM,–,–,–,–
"COc1ccc([C@H](C)N2CC[C@](CCC(C)(C)O)(c3ccccc3)OC2=O)cc1 [EXAMPLE 428, (R)-6-(3-hydroxy-3-methylbutyl)-3-((S)-1-(4-methoxyphenyl)ethyl)-6-phenyl-1,3-oxazinan-2-one]",< 100 nM,–,–,82%,–
"C=CC[C@@]1(c2cccs2)CCN([C@@H](C)c2ccc(-c3ccc(F)cc3F)cc2)C(=O)O1 [EXAMPLE 165, (S)-6-allyl-3-((S)-1-(2′,4′-difluorobiphenyl-4-yl)ethyl)-6-(thiophen-2-yl)-1,3-oxazinan-2-one]",< 100 nM,–,92.9%,–,–
"C[C@@H](c1ccc(C(=O)O)cc1)N1CC[C@](CCCO)(c2ccc(F)cc2)OC1=O [EXAMPLE 142, 4-((S)-1-((R)-6-(4-fluorophenyl)-6-(3-hydroxypropyl)-2-oxo-1,3-oxazinan-3-yl)ethyl)benzoic acid]",100 to 1000 nM,34.4%,27.4%,–,–
"O=C1OC(CCO)(c2ccccc2)CCN1c1cccc(-c2c(Cl)cccc2Cl)c1 (stereo not shown) [EXAMPLE 69, 3-(2′,6′-dichlorobiphenyl-3-yl)-6-(2-hydroxyethyl)-6-phenyl-1,3-oxazinan-2-one]",< 100 nM,94.7%,94.8%,–,–
"CC1(c2ccccc2)CCN(c2cccc(-c3ccc(CNS(C)(=O)=O)cc3)c2)C(=O)O1 (stereo not shown) [EXAMPLE 19, N-((3′-(6-methyl-2-oxo-6-phenyl-1,3-oxazinan-3-yl)biphenyl-4-yl)methyl)methanesulfonamide]",100 to 1000 nM,–,24%,–,–
"COc1ccc([C@H](C)N2CC[C@](CCCNS(C)(=O)=O)(c3ccc(F)cc3)OC2=O)cc1 [EXAMPLE 314, N-(3-((R)-6-(4-fluorophenyl)-3-((S)-1-(4-methoxyphenyl)ethyl)-2-oxo-1,3-oxazinan-6-yl)propyl)methanesulfonamide]",< 100 nM,–,–,96.5%,–
"COc1ccccc1-c1cccc(N2CCC(C)(c3ccccc3)OC2=O)c1 (stereo not shown) [EXAMPLE 21, 3-(2′-methoxybiphenyl-3-yl)-6-methyl-6-phenyl-1,3-oxazinan-2-one]",< 100 nM,–,76.7%,–,–
"C=CC[C@]1(c2ccc(F)cc2)CCN([C@@H](C)c2ccc(-c3nnc(C)o3)cc2)C(=O)O1 [EXAMPLE 215, (R)-6-allyl-6-(4-fluorophenyl)-3-((S)-1-(4-(5-methyl-1,3,4-oxadiazol-2-yl)phenyl)ethyl)-1,3-oxazinan-2-one]",< 100 nM,72.1%,–,–,–
"C[C@@H](c1ccc(Cl)cc1)N1CC[C@](CCCNS(C)(=O)=O)(c2ccccc2)OC1=O [EXAMPLE 404, N-(3-((R)-3-((S)-1-(4-chlorophenyl)ethyl)-2-oxo-6-phenyl-1,3-oxazinan-6-yl)propyl)methanesulfonamide]",< 100 nM,–,–,91.2%,–
"C[C@@H](c1ccc(F)cc1)N1CC[C@](CCCNS(C)(=O)=O)(c2ccc(F)cc2)OC1=O [EXAMPLE 409, N-(3-((R)-6-(4-fluorophenyl)-3-((S)-1-(4-fluorophenyl)ethyl)-2-oxo-1,3-oxazinan-6-yl)propyl)methanesulfonamide]",< 100 nM,–,–,91.6%,–
"COCc1ccc([C@H](C)N2CC[C@](CCCO)(c3ccccc3)OC2=O)cc1 [EXAMPLE 199, (R)-6-(3-hydroxypropyl)-3-((S)-1-(4-(methoxymethyl)phenyl)ethyl)-6-phenyl-1,3-oxazinan-2-one]",< 100 nM,–,–,–,90.3%
"C[C@@H](c1ccc(OCC(F)(F)F)cc1)N1CC[C@](CCC(N)=O)(c2ccc(F)cc2)OC1=O [EXAMPLE 505, 3-((R)-6-(4-fluorophenyl)-2-oxo-3-((S)-1-(4-(2,2,2-trifluoroethoxy)phenyl)ethyl)-1,3-oxazinan-6-yl)propanamide]",< 100 nM,–,–,96.3%,–
"CC(O)C[C@]1(c2ccc(F)cc2)CCN([C@@H](C)c2cccc(Br)c2)C(=O)O1 (stereo partly drawn) [EXAMPLE 355, (6S)-3-((S)-1-(3-bromophenyl)ethyl)-6-(4-fluorophenyl)-6-(2-hydroxypropyl)-1,3-oxazinan-2-one]",< 100 nM,–,–,–,95.5%

Structure (SMILES),IC50,inhibition at 0.1 µM [1],inhibition at 0.1111 µM,inhibition at 0.1 µM [2],inhibition at 0.1 µM [3]
"CC1(c2ccccc2)CCN(c2cccc(-c3ccccc3Cl)c2)C(=O)O1 (stereo not shown) [EXAMPLE 10, 3-(2′-chlorobiphenyl-3-yl)-6-methyl-6-phenyl-1,3-oxazinan-2-one]",< 100 nM,–,90.5%,–,–
"C[C@@H](c1ccc(-c2ccc(F)cc2)cc1)N1CC[C@](CCNCCF)(c2ccc(F)cc2)OC1=O [EXAMPLE 463, (R)-3-((S)-1-(4′-fluorobiphenyl-4-yl)ethyl)-6-(2-(2-fluoroethylamino)ethyl)-6-(4-fluorophenyl)-1,3-oxazinan-2-one]",< 100 nM,–,–,81.3%,–
"CC1(c2ccccc2)CCN(c2cccc(-c3ccccc3NS(C)(=O)=O)c2)C(=O)O1 (stereo not shown) [EXAMPLE 45, N-(3′-(6-methyl-2-oxo-6-phenyl-1,3-oxazinan-3-yl)biphenyl-2-yl)methanesulfonamide]",100 to 1000 nM,–,31.2%,–,–
"C[C@@H](c1ccc(Br)cc1)N1CC[C@](C)(c2ccc(F)cc2)OC1=O (single isomer, unassigned) [EXAMPLE 518 Isomer 2]",< 100 nM,–,–,98%,–
"COc1cccc([C@H](C)N2CCC(C)(c3ccccc3)OC2=O)c1 (stereo partly drawn) [EXAMPLE 84, 3-((S)-1-(3-methoxyphenyl)ethyl)-6-methyl-6-phenyl-1,3-oxazinan-2-one]",< 100 nM,–,94.6%,–,–
"C[C@@H](c1ccccc1)N1CCC(C)(c2ccccc2)OC1=O (single isomer, unassigned) [EXAMPLE 82 Isomer 1]",< 100 nM,–,87.6%,–,–
"CC(=O)NCCC1(c2ccccc2)CCN(c2cccc(-c3ccc(F)cc3F)c2)C(=O)O1 (stereo not shown) [EXAMPLE 98, N-(2-(3-(2′,4′-difluorobiphenyl-3-yl)-2-oxo-6-phenyl-1,3-oxazinan-6-yl)ethyl)acetamide]",< 100 nM,–,73.4%,–,–
"C[C@@H](c1ccc(Br)cc1)N1CC[C@](CCN2CCCC2)(c2ccc(F)cc2)OC1=O [EXAMPLE 376, (R)-3-((S)-1-(4-bromophenyl)ethyl)-6-(4-fluorophenyl)-6-(2-(pyrrolidin-1-yl)ethyl)-1,3-oxazinan-2-one]",< 100 nM,–,–,50.3%,–
"C=CCC1(c2ccc(F)cc2)CCN([C@@H](C)c2ccc(C)cc2)C(=O)O1 (single isomer, unassigned) [EXAMPLE 189 Isomer 1]",< 100 nM,95.2%,–,–,–
"C[C@@H](c1ccc(-c2ccc(F)cc2F)cc1)N1CC[C@](CC(=O)O)(c2ccc(F)cc2)OC1=O [EXAMPLE 174, 2-((S)-3-((S)-1-(2′,4′-difluorobiphenyl-4-yl)ethyl)-6-(4-fluorophenyl)-2-oxo-1,3-oxazinan-6-yl)acetic acid]",100 to 1000 nM,–,48%,–,–
"C=CC[C@]1(c2ccc(F)cc2)CCN([C@@H](C)c2cccc(C(=O)OC)c2)C(=O)O1 [EXAMPLE 362, Methyl 3-((S)-1-((R)-6-allyl-6-(4-fluorophenyl)-2-oxo-1,3-oxazinan-3-yl)ethyl)benzoate]",< 100 nM,–,–,93.4%,–
"C=CCCC1(c2ccc(F)cc2)CCN([C@@H](C)c2ccc(OC(F)F)cc2)C(=O)O1 (single isomer, unassigned) [EXAMPLE 323 Isomer 1]",< 100 nM,–,–,–,85.9%
"C[C@@H](c1ccc(Br)cc1)N1CC[C@](CCCO)(c2ccc(F)cc2F)OC1=O [EXAMPLE 366, (R)-3-((S)-1-(4-bromophenyl)ethyl)-6-(2,4-difluorophenyl)-6-(3-hydroxypropyl)-1,3-oxazinan-2-one]",< 100 nM,–,–,95.1%,–
"CC1(c2ccccc2)CCN(c2cccc(-c3cccc(S(C)(=O)=O)c3)c2)C(=O)O1 (stereo not shown) [EXAMPLE 40, 6-methyl-3-(3′-(methylsulfonyl)biphenyl-3-yl)-6-phenyl-1,3-oxazinan-2-one]",100 to 1000 nM,–,28.8%,–,–
"O=C1OC(CCO)(c2ccc(F)cc2)CCN1c1ccc(F)c(-c2ccc(F)cc2F)c1 (stereo not shown) [EXAMPLE 105, 6-(4-fluorophenyl)-6-(2-hydroxyethyl)-3-(2′,4′,6-trifluorobiphenyl-3-yl)-1,3-oxazinan-2-one]",< 100 nM,–,87.4%,–,–
"COc1ccc([C@H](C)N2CC[C@](CC(O)CO)(c3ccc(F)cc3)OC2=O)cc1 (single isomer, unassigned) [EXAMPLE 206 Isomer 1]",< 100 nM,90.3%,–,–,–
"CNS(=O)(=O)c1cccc(-c2cccc(N3CCC(C)(c4ccccc4)OC3=O)c2)c1 (stereo not shown) [EXAMPLE 30, N-methyl-3′-(6-methyl-2-oxo-6-phenyl-1,3-oxazinan-3-yl)biphenyl-3-sulfonamide]",100 to 1000 nM,–,23.1%,–,–

# Reference: US8575156B2, “Cyclic inhibitors of 11β-hydroxysteroid dehydrogenase 1” (Vitae Pharmaceuticals, Inc., priority 2007, dated 2013)
